Results reported in patent US20060128666A1, “Use of sphingomyelin and lyso-sphingomyelin as absorption enhancers” (priority 2003, published 2006).

Tests used:
[1] = tested on: confluent Caco-2 cell layers; experiment: Transport of nutrients and bisphosphonates through confluent Caco-2 cell layers in two-compartment transport system, in presence of sphingolipid; assay type: in vitro ADME, human; details: for Transport velocity of testosterone / Velocity measured/Control velocity, testosterone: nutrient testosterone 10 μM
Procedure: GlySar, mannitol, testosterone, caffeine and cholesterol were tested at a concentration of 10 μM. This concentration was reached by mixing “cold” and radioactively labeled test substrate (mannitol, testosterone and cholesterol) or by testing the radioactively labeled substrate alone (GlySar and caffeine).
In general, the experiments were carried out in the presence and in the absence of 0.03 wt. % of bile. If bile was used in an experiment, this is explicitly stated in the results.
For the present transport studies, Caco-2 cells (passage 34) were seeded on semi-permeable filter inserts (12-well Transwell™ plates, 0.4 μm pores, Corning Costar) at 100,000 cells.per filter (growth surface 1.13 cm^2 containing 2.5 ml of culture medium). The number of cells was counted using a Bürker-Türk count chamber. The cells on the inserts were grown for 21 days at 37° C. in a humidified incubator in an atmosphere of air containing 5% of CO2. During such a culture period, the cells undergo an enterocyte-like differentiation.
Three filter inserts were used per experimental group.
The radioactivity in all samples was determined as DPM (disintegrations per minute), using an LKB/Wallac S1409 scintillation counter. The amount of radioactivity was determined in the 100-μl samples of the dose compartments and in the 500-μl samples of the receptor compartments.
In the experiments whose results are shown in Table 1, phytosphingosine was added as 0.02 wt. % (0.6 μM), ceramide III as 0.02 wt. % (0.3 μM), lysosphingomyelin as 0.008 wt. % (0.2 μM), sphinganine as 0.02 wt. % (0.6 μM) sphingosine as 0.02 wt. % (0.6 μM), egg sphingomyelin as 0.02 wt. % (0.3 μM) and glucosylceramide III as 0.02 wt. % (0.3 μM).

Caco-2 cell layers = experiment: Transport of the lipids themselves from apical to basolateral side of Caco-2 cell layer; details: 19 μg/ml lysosphingomyelin or 16.6 μg/ml phytosphingosine added to apical compartment
Procedure: The effect on transport and the transport of lipids was tested with 0.02 wt. % in transport medium (except for lysosphingomyelin and cerebroside, of which 0.008 wt. % and 0.01 wt. %, respectively, were used). Stock solutions of the test compounds were prepared in ethanol. The stock solutions were diluted in transport medium to a final concentration of 2% (v/v) ethanol in transport medium.
The culture medium was removed from the filter inserts (apical compartment) and from under the filter inserts (basolateral compartment). The inserts were washed using phosphate-buffered saline (PBS) and were moved to a new 12-well plate, whose wells had been filled with 1.8 ml of transport medium (DMEM without phenol red, non-essential amino acids (1% v/v), L-glutamine (2 mM) and gentamicin (50 μg/ml)). The transport study was started by filling the apical chamber with 600 μl of the dosed solution. A sample of 100 μl from the apical compartment was collected directly after administration of the dosage. The 12-well plate with the filter inserts was incubated on a rotating platform (60 rpm) in a humidified incubator at 37° C. under an atmosphere of 5% of CO2 in air. Samples (500 μl) from the basolateral compartment were collected at 15, 30, 60 and 120 min after the start of the transport study. […]

[2] = bisphosphonate EB1053 10 μM, no bile, lysosphingomyelin 0.008 wt. %
[3] = bisphosphonate EB1053 at 10× conc., no bile, lysosphingomyelin 0.008 wt. %
[4] = bisphosphonate d-ADP 10 μM, no bile, lysosphingomyelin 0.008 wt. %
[5] = bisphosphonate d-ADP at 10× conc., no bile, lysosphingomyelin 0.008 wt. %
[6] = nutrient GlySar 10 μM, additive 0.03% bile, lysosphingomyelin 0.008 wt. %
[7] = nutrient caffeine 10 μM, additive 0.03% bile, lysosphingomyelin 0.008 wt. %
[8] = nutrient cholesterol 10 μM, additive 0.03% bile, test lipid 0.02 wt. % (lysosphingomyelin 0.008 wt. %)
[9] = nutrient mannitol 10 μM, additive 0.03% bile, lysosphingomyelin 0.008 wt. %
[10] = additive 0.03% bile, lysosphingomyelin 0.008 wt. %
[11] = no bile, test lipid 0.02 wt. % (lysosphingomyelin 0.008 wt. %)

Procedure for Caco-2 cell monolayers: After 21 days of cell culture, the transepithelial electrical resistance (TEER) of the monolayers was used to check on the growth and differentiation of the Caco-2 cells on the filters (Duizer et al., J. Contr. Release 49: 39-49, 1997). The TEER is a measure for the differentiation status of the monolayer and was measured by means of the Millicell-ERS epithelial volt ohm meter (Millipore Co., Bedford, USA). Only monolayers having a TEER higher than 500 Ω.cm^−2 were used in the transport experiments.
Three filter inserts were used per experimental group. The integrity of all monolayers of Caco-2 cells used in this study was determined by measuring the transepithelial electrical resistance (TEER).

CCCCCCCCCCCCC/C=C/[C@@H](O)[C@@H](N)COP(=O)([O-])OCC[N+](C)(C)C [lysosphingomyelin, sphingosyl-phosphorylcholine]
Resistance between the apical and basolateral liquids (Caco-2 cell monolayers): decrease | Transport velocity of EB1053 [1, 2]: 371 ± 17 cm · hour^−1 × 10^−7 | Velocity measured/Control velocity, EB1053 [1, 2]: 12.2 | Transport velocity of EB1053 (10× conc.) [1, 3]: 414 ± 13 cm · hour^−1 × 10^−7 | Velocity measured/Control velocity, EB1053 (10× conc.) [1, 3]: 12.1 | Transport velocity of d-ADP [1, 4]: 922 ± 10 cm · hour^−1 × 10^−7 | Velocity measured/Control velocity, d-ADP [1, 4]: 4.9 | Transport velocity of d-ADP (10× conc.) [1, 5]: 498 ± 8 cm · hour^−1 × 10^−7 | Velocity measured/Control velocity, d-ADP (10× conc.) [1, 5]: 6.1 | Increase of EB-1053 transport (times faster) ([1]; in presence of 0.008% (w/v) lysosphingomyelin): 12 times | Transport velocity of GlySar [1, 6]: 35.4 ± 2.4 cm · hour^−1 × 10^−7 | Velocity measured/Control velocity, GlySar [1, 6]: 1 | Transport velocity of GlySar ([1]; nutrient GlySar 10 μM, no bile, test lipid 0.02 wt. % (lysosphingomyelin 0.008 wt. %)): 79.7 ± 28.1 cm · hour^−1 × 10^−7 | Transport velocity of caffeine [1, 7]: 560 ± 29 cm · hour^−1 × 10^−7 | Velocity measured/Control velocity, caffeine [1, 7]: 1 | Transport velocity of caffeine ([1]; nutrient caffeine 10 μM, no bile, test lipid 0.02 wt. % (lysosphingomyelin 0.008 wt. %)): 559 ± 38 cm · hour^−1 × 10^−7 | Transport velocity of cholesterol [1, 8]: 1.25 (n = 1) cm · hour^−1 × 10^−7 | Velocity measured/Control velocity, cholesterol [1, 8]: 1 | Transport velocity of mannitol [1, 9]: 12.3 ± 1.8 cm · hour^−1 × 10^−7 | Velocity measured/Control velocity, mannitol [1, 9]: 1 | Transport velocity of mannitol ([1]; nutrient mannitol 10 μM, no bile, test lipid 0.02 wt. % (lysosphingomyelin 0.008 wt. %)): 120 ± 9 cm · hour^−1 × 10^−7 | Transport velocity of testosterone [1, 10]: 576 ± 24 cm · hour^−1 × 10^−7 | Velocity measured/Control velocity, testosterone [1, 10]: 1 | Transport velocity of testosterone [1, 11]: 536 ± 21 cm · hour^−1 × 10^−7 | Velocity measured/Control velocity, testosterone [1, 11]: 1

CCCCCCCCCCCCCC[C@@H](O)[C@@H](O)[C@@H](N)CO [phytosphingosine]
Lipid still demonstrated in the apical liquid after 120 minutes (Caco-2 cell layers): 12.9 µg/mL | Lipid in the basolateral liquids (apical to basolateral transport of lipid) (Caco-2 cell layers; 120 minutes): no lipids could be demonstrated
